Assay results reported in PMC8206213, “An L-2-hydroxyglutarate biosensor based on specific transcriptional regulator LhgR” (Nature Communications, 2021).
“And” between values parts separate entries of the source, which are not always exact repeats. Equal entries are not always repeated.

Legend:
[1] = tested on: LHGFR0N7C; assay: Influence of other compounds on the response of purified LHGFR0N7C to L-2-HG; format: binding, Pseudomonas putida W619
Description: Purified L-2-HG biosensors and different compounds were diluted by 50 mM Tris-HCl buffer (pH 7.4), mixed together in a black 96-well plate at a volume ratio of 3:1, and the fluorescence intensities were measured using an EnSight microplate reader (PerkinElmer, USA) with excitation at 430 nm, emission at 485 nm (mTFP) and 528 nm (Venus). […] The [L-2-HG], Kd, and p refer to the L-2-HG concentration, apparent dissociation constant, and Hill slope, respectively. Emission spectra were recorded at 430 nm excitation, in steps of 2 nm. Excitation spectra were recorded using emission at 550 nm, excitation from 380 to 535 nm in steps of 2 nm.

[2] = tested on: LHGFR0N3C expressed in E. coli BL21(DE3); assay: Specificity of LHGFR0N3C expressed in E. coli BL21(DE3), 1 mM compounds; format: cell-based; settings: for Emission ratio: 1 mM compound, Fig. 5c
Description: (§1) To characterize the sensitivity and specificity of LHGFR expressed in E. coli BL21(DE3), 90 μL cell suspensions following 8 h carbon starvation were mixed with 10 μL increasing concentrations of L-2-HG or other compounds, and then added into a black 96-well plate (total 100 μL/per well), the fluorescence intensities were determined using an EnSight microplate reader (PerkinElmer, USA) and the following instrument settings: excitation at 430 nm, emission at 485 nm (mTFP) and 528 nm (Venus), time intervals of 5 min, the temperature at 37 °C, and shake at 180 rpm.

[3] = tested on: LHGFR0N7C expressed in E. coli BL21(DE3); assay: Specificity of LHGFR0N7C expressed in E. coli BL21(DE3), 1 mM compounds; format: cell-based; settings: Supplementary Fig. 13c
Description: as §1

[4] = tested on: LHGFR0N3C expressed in HEK293FT cells; assay: Specificity of LHGFR0N3C expressed in permeabilized HEK293FT cells, 1 mM compounds; format: cell-based, human (HEK293FT cells)
Description: (§2) To characterize the sensitivity and specificity of LHGFR expressed in HEK293FT cells, cells were trypsinized 48 h following transfection and suspended in 1× Hank’s balanced salt solution supplemented with 20 mM HEPES. […] Digitonin at a concentration of 10 μM was used to induce cell permeabilization and deplete intracellular L-2-HG for in vivo response curves construction. Then, the fluorescence intensities were determined by a SpectraMax i3 fluorescence plate reader (Molecular Devices, USA) with excitation at 430 nm and emission at 485 nm (mTFP) and 528 nm (Venus). Basal L-2-HG concentration in HEK293FT cells under physiological conditions was determined by substituting the emission ratios of non-permeabilized HEK293FT cells into the calibrated in vivo response curves.

[5] = tested on: LHGFR0N7C expressed in HEK293FT cells; assay: Specificity of LHGFR0N7C expressed in permeabilized HEK293FT cells, 1 mM compounds; format: cell-based, human (HEK293FT cells); settings: Supplementary Fig. 17d; Control about 1
Description: as §2

Structure (SMILES): O=C(O)CC[C@H](O)C(=O)O [L-2-HG, L-2-Hydroxyglutarate]
- Emission ratio of 528/485 ([1]; L-2-HG concentration 100, in the absence of 2-KG, Suppl. Fig. 9h): 2.538 and 2.5321 and 2.598
- Emission ratio of 528/485 ([1]; L-2-HG concentration 100, in the absence of D-2-HG, Suppl. Fig. 9f): 2.581 and 2.561 and 2.566
- Emission ratio of 528/485 ([1]; L-2-HG concentration 100, in the presence of 2-KG, Suppl. Fig. 9h): 2.5747 and 2.606 and 2.576
- Emission ratio of 528/485 ([1]; L-2-HG concentration 100, in the presence of D-2-HG, Suppl. Fig. 9f): 2.5851 and 2.631 and 2.587
- Emission ratio of 528/485 ([1]; L-2-HG concentration 200, in the absence of 2-KG, Suppl. Fig. 9h): 2.539 and 2.563 and 2.555
- Emission ratio of 528/485 ([1]; L-2-HG concentration 200, in the absence of D-2-HG, Suppl. Fig. 9f): 2.5575 and 2.555 and 2.59
- Emission ratio of 528/485 ([1]; L-2-HG concentration 200, in the presence of 2-KG, Suppl. Fig. 9h): 2.617 and 2.618 and 2.612
- Emission ratio of 528/485 ([1]; L-2-HG concentration 200, in the presence of D-2-HG, Suppl. Fig. 9f): 2.597 and 2.613 and 2.641
- Emission ratio of 528/485 ([1]; L-2-HG concentration 1000, in the absence of 2-KG, Suppl. Fig. 9h): 2.624 and 2.621 and 2.641
- Emission ratio of 528/485 ([1]; L-2-HG concentration 1000, in the absence of D-2-HG, Suppl. Fig. 9f): 2.621 and 2.615 and 2.63
- Emission ratio of 528/485 ([1]; L-2-HG concentration 1000, in the presence of 2-KG, Suppl. Fig. 9h): 2.674 and 2.614 and 2.6567
- Emission ratio of 528/485 ([1]; L-2-HG concentration 1000, in the presence of D-2-HG, Suppl. Fig. 9f): 2.625 and 2.6112 and 2.6354
- Emission ratio of 528/485 ([1]; L-2-HG concentration 2000, in the absence of 2-KG, Suppl. Fig. 9h): 2.674 and 2.655 and 2.638
- Emission ratio of 528/485 ([1]; L-2-HG concentration 2000, in the absence of D-2-HG, Suppl. Fig. 9f): 2.642 and 2.658 and 2.618
- Emission ratio of 528/485 ([1]; L-2-HG concentration 2000, in the presence of 2-KG, Suppl. Fig. 9h): 2.683 and 2.662 and 2.678
- Emission ratio of 528/485 ([1]; L-2-HG concentration 2000, in the presence of D-2-HG, Suppl. Fig. 9f): 2.621 and 2.633 and 2.649
- Emission ratio ([1]; Suppl. Fig. 9b, L-2-HG alone or with the compound, three replicates): 2.613 and 2.611 and 2.604
- Emission ratio ([2]; 0 min): 1.025 and 0.9964 and 0.9897
- Emission ratio ([2]; 5 min): 1.0102 and 1.019 and 1.007
- Emission ratio ([2]; 10 min): 1.0776 and 1.069 and 1.057
- Emission ratio ([2]; 15 min): 1.152 and 1.136 and 1.118
- Emission ratio ([2]; 20 min): 1.219 and 1.203 and 1.181
- Emission ratio ([2]; 25 min): 1.256 and 1.2441 and 1.233
- Emission ratio ([2]; 30 min): 1.305 and 1.29 and 1.273
- Emission ratio ([2]; 35 min): 1.298 and 1.29 and 1.292
- Emission ratio ([2]; 40 min): 1.314 and 1.317 and 1.304
- Emission ratio ([2]; 45 min): 1.326 and 1.316 and 1.3122
- Emission ratio ([2]; 50 min): 1.332 and 1.331 and 1.305
- Emission ratio ([2]; 55 min): 1.343 and 1.33 and 1.32
- Emission ratio ([2]; 60 min): 1.3375 and 1.331 and 1.312
- Emission ratio ([2]; 65 min): 1.326 and 1.339 and 1.336
- Emission ratio ([2]; 70 min): 1.339 and 1.343 and 1.334
- Emission ratio ([2]; 75 min): 1.32 and 1.336 and 1.325
- Emission ratio ([2]; 80 min): 1.332 and 1.339 and 1.343
- Emission ratio ([2]; 85 min): 1.326 and 1.34 and 1.332
- Emission ratio ([2]; 90 min): 1.323 and 1.316 and 1.34
- Increase of the emission ratio in E. coli BL21(DE3) ([2]; 1 mM exogenous compound): could significantly increase the emission ratio
- normalized emission ratio of biosensor expressed in E. coli ([3]; time 0 min): 1.016 and 1.006 and 1.026
- normalized emission ratio of biosensor expressed in E. coli ([3]; time 5 min): 1.0991 and 1.081 and 1.1
- normalized emission ratio of biosensor expressed in E. coli ([3]; time 10 min): 1.206 and 1.179 and 1.184
- normalized emission ratio of biosensor expressed in E. coli ([3]; time 15 min): 1.293 and 1.273 and 1.276
- normalized emission ratio of biosensor expressed in E. coli ([3]; time 20 min): 1.341 and 1.328 and 1.319
- normalized emission ratio of biosensor expressed in E. coli ([3]; time 25 min): 1.35 and 1.357 and 1.333
- normalized emission ratio of biosensor expressed in E. coli ([3]; time 30 min): 1.374 and 1.365 and 1.366
- normalized emission ratio of biosensor expressed in E. coli ([3]; time 35 min): 1.386 and 1.367 and 1.374
- normalized emission ratio of biosensor expressed in E. coli ([3]; time 40 min): 1.391 and 1.384 and 1.386
- normalized emission ratio of biosensor expressed in E. coli ([3]; time 45 min): 1.414 and 1.39 and 1.389
- normalized emission ratio of biosensor expressed in E. coli ([3]; time 50 min): 1.407 and 1.378 and 1.396
- normalized emission ratio of biosensor expressed in E. coli ([3]; time 55 min): 1.415 and 1.39 and 1.4085
- normalized emission ratio of biosensor expressed in E. coli ([3]; time 60 min): 1.43 and 1.394 and 1.408
- normalized emission ratio of biosensor expressed in E. coli ([3]; time 65 min): 1.417 and 1.4114 and 1.411
- normalized emission ratio of biosensor expressed in E. coli ([3]; time 70 min): 1.41 and 1.402 and 1.422
- normalized emission ratio of biosensor expressed in E. coli ([3]; time 75 min): 1.393 and 1.405 and 1.423
- normalized emission ratio of biosensor expressed in E. coli ([3]; time 80 min): 1.412 and 1.416 and 1.423
- normalized emission ratio of biosensor expressed in E. coli ([3]; time 85 min): 1.389 and 1.408 and 1.4341
- normalized emission ratio of biosensor expressed in E. coli ([3]; time 90 min): 1.404 and 1.406 and 1.429
- Increase of the emission ratio of LHGFR0N3C ([4]; 10 μM digitonin-permeabilized HEK293FT cells): Only exogenous L-2-HG could significantly increase the emission ratio
- Normalized emission ratio ([4]; 1 mM compound, cells permeabilized with 10 μM digitonin, normalized to control): 1.418 and 1.367 and 1.404
- Normalized emission ratio [5]: 1.4262 and 1.43 and 1.452
